From paper PMC2792043 (PLoS ONE, 2009)
In brackets after ≈: the same amount, converted by molar mass. Several values for one entry are separate records, joined by “and”; a condition that tells them apart may be missing. Equal entries are not always repeated. Structures can show the parent of a compound that is named as a salt.

What was measured:
influenza A PR8 virus [1] = type: cell-based, Influenza A/Puerto Rico/8/34 (H1N1)
NA activity = type: biochemical
influenza A NY virus = type: cell-based
influenza A PR8 virus [2] = test: microbe, parasite or virus in culture; type: cell-based; details: PR8, MDCK, 48 h, read-out: minimum effective dose required to protect 50% of cells (EC50)
mice = details: mouse, in vivo; cited from earlier work
[3] = molecular target: NA from influenza NC virus (Influenza A virus, UniProt Q7TG96); type: biochemical; details: read-out: IC50 NA activity
hamsters = details: hamster, in vivo; cited from earlier work
influenza A PR8 virus [4] = type: cell-based, Influenza A/Puerto Rico/8/34 (H1N1); remark: listed apart in the source
influenza A or B viruses = type: cell-based
[5] = tested on: influenza A and B viruses; type: cell-based
NMRI mice = details: mouse, in vivo; cited from earlier work
influenza A PR8 virus [6] = type: cell-based, Influenza A/Puerto Rico/8/34 (H1N1); remark: listed apart in the source
influenza A PR8 virus [7] = type: cell-based
in vitro = details: pH 7.2
recombinant N4 protein = recombinant N4 protein (Influenza A virus, UniProt Q6XV43); test: biochemical
influenza A NC virus = type: cell-based
[8] = tested on: influenza A strains PR8, NY or NC; type: cell-based

For “N-acetyl-2,3-dehydro-2-deoxyneuraminic acid [NAA]”, the “Virus yield, Cells” value (influenza A PR8 virus [1]) was 6.2×10^6 PFU/ml, the “Virus yield, Medium” value (influenza A PR8 virus [1]) was 4.7×10^6 PFU/ml and the “inhibition of NA activity” value (NA activity) was “inhibited NA activity with very low IC50 values”.
In the case of `NC12CC3CC(CC(C3)C1)C2` [AH, amantadine hydrochloride], the “Virus yield, Cells” value (influenza A PR8 virus [1]) is reported as 4.7×10^5 PFU/ml, the “Virus yield, Medium” value (influenza A PR8 virus [1]) is reported as 3×10^5 PFU/ml and the “inhibition of NA activity” value (NA activity) is reported as “no inhibition”.
For `O=C(O)C1=CC(=C(c2ccc(O)c(C(=O)O)c2)c2ccc(O)c(C(=O)O)c2)C=CC1=O` [ATA, Aurintricarboxylic acid], the “reduction of virus abundance in medium” value (influenza A NY virus) is given as 72% and 81%, the EC50 (influenza A PR8 virus [2]) is given as 6.5 µg/mL (≈ 15.4 µM) and the “single dose tolerated well” value (mice) is given as no more than 4 mg/kg. For the same compound, the IC50 [3] was 39.3 µM, the “well tolerated infusion dose” value (hamsters) was “up to 1 mg/kg/hour” and the “viral aggregation by electron microscopy” value (influenza A PR8 virus [4]) was “induce viral aggregation on the cell surface”. The “number and size of plaques” value (influenza A or B viruses) was “reduced both the number and size of plaques”, the “plaques after pre-incubation of virus with ATA” value [5] was “reduced the number of plaques” and the LD50 (NMRI mice) was 340 mg/kg. For the same compound, the median life span (NMRI mice) was 18 days, the “Virus yield, Cells” value (influenza A PR8 virus [1]) was 5×10^4 PFU/ml and the “Virus yield, Medium” value (influenza A PR8 virus [1]) was 1.3×10^4 PFU/ml. For the same compound, the “magnitude of inhibition, production of infectious viral particles” value (influenza A PR8 virus [1]) was “at least 3 logs”, the “viral NP RNA level” value (influenza A PR8 virus [6]) was “substantial reduction in viral NP RNA” and the “reduction of virus abundance in medium” value (influenza A PR8 virus [7]) was 93% and 95%. The CC50 at 48 h (in vitro) was 577 µg/mL (≈ 1370 µM), the IC50 (recombinant N4 protein) was 2.37 µM and the “reduction of virus abundance in medium” value (influenza A NC virus) was 86% and 94%. For the same compound, the “protection from virus-induced CPE, prophylactic exposure” value [8] was “did not protect cells from virus-induced CPE” and the “protection of infected MDCK cells (neutral red uptake)” value [8] was “significantly protected MDCK cells from influenza infection”.
